According to EPA's ToxValDB 9.5 (doi:10.2903/j.efsa.2009.310r):
In brackets after ≈: the same amount, converted by molar mass. Several values for one entry are separate records, joined by “and”; a condition that tells them apart may be missing. Equal values may be shown once.

Columns and labels:
Anas platyrhynchos [1] = settings: oral, mortality; for LD50: acute, unspecified; for LC50: short-term, feed
Apis mellifera = settings: acute; dermal; mortality
Bibionidae = settings: chronic/long-term; duration: 28 days
Ceriodaphnia dubia = settings: chronic/long-term; duration: 7 days; reproduction
Colinus virginianus = settings: acute, oral, mortality; for LC50: diet
Coturnix coturnix = settings: acute, oral, mortality
Folsomia candida = settings: chronic/long-term; duration: 28 days
Hypoaspis aculeifer = settings: chronic/long-term; duration: 28 days
Lepomis macrochirus = settings: acute; duration: 96 hours; mortality
Phasianus sp. = settings: acute, oral, unspecified, mortality
Rattus norvegicus = settings: mortality
Anas platyrhynchos [2] = experiment: LC10; higher = less toxic; settings: short-term; duration: 14 days; oral; feed; mortality

CNC(=O)Oc1cccc2c1OC(C)(C)C2 [Carbofuran]
LD50 (Anas platyrhynchos [1]; F): 0.86 mg/kg-day | LD50 (Anas platyrhynchos [1]): 0.76 mg/kg-day | LC50 (Anas platyrhynchos [1]; duration: 5 days): 10 mg/kg-day and 17 mg/kg-day | LC50 (Anas platyrhynchos [1]; duration: 14 days): 1.6 mg/kg-day | LD50 (Apis mellifera): 0.0357 µg/piece | NOEC (Bibionidae): 0.0032 mg/L | NOEC (Ceriodaphnia dubia): 0.00016 mg/L | LC50 (Colinus virginianus; duration: 5 days): 114 mg/kg-day | LC50 (Colinus virginianus; duration: 7 days): 20.8 mg/kg-day | LC50 (Colinus virginianus; duration: 14 days): 15.8 mg/kg-day | LD50 (Colinus virginianus; M/F): 8 mg/kg-day | LD50 (Coturnix coturnix; F): 3.5 mg/kg-day | LD50 (Coturnix coturnix; M): 4.9 mg/kg-day | NOEC (Folsomia candida): 0.21 mg/kg | NOEC (Hypoaspis aculeifer): 10.4 mg/kg | LC50 (Lepomis macrochirus): 0.18 µg/mL (≈ 0.814 µM) | LD50 (Phasianus sp.; F): 6.2 mg/kg-day | LD50 (Phasianus sp.; M): 4 mg/kg-day | LD50 (Rattus norvegicus; acute, oral): < 5.6 mg/kg-day | NOAEL (Rattus norvegicus; chronic): 0.1 mg/kg-day | LC50 (Tagia sp.; acute, duration: 14 days, mortality): > 50 mg/kg | NOEC (Tagia sp.; chronic/long-term, duration: 56 days): < 0.84 mg/kg | LC10 (Anas platyrhynchos [2]): 0.64 mg/kg-day
